A short description of this data set: gradient 5% acetonitrile 3 min, to 50% in 2 min, to 85% in 15 min, held 3 min, 100 µL/min. As to conditions: column: Zorbax Extend-C18 2.1 x 50 mm; eluents: water / acetonitrile, 0.1% formic acid. The procedure, abridged:
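Using water and acetonitrile that each contained 0.1% formic acid, mixtures of ~100 pure standards were separated at 100 μL/min on a Zorbax Extend-C18 column (2.1 × 50 mm, 1.8 μm). The HPLC fed a quadrupole time-of-flight mass spectrometer working in positive and negative ionization mode, with dead and dwell volumes of 40 μL and 900 μL. Data were acquired over 3 months. Retention time was read from computationally picked adduct peaks after manual inspection of each.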
`Cc1ccc(F)cc1NC(=O)Cn1cnc2nc(N3CCCC(C(=O)NC(C)C)C3)sc2c1=O` (centres undefined) returned an RP-LC retention time of 712 s. Turning to `CCOc1ccc2ncc(C(=O)c3ccc(OC)cc3)c(N3CCN(CC)CC3)c2c1`, the RP-LC retention time was determined as 600 s.

`CC(=O)Nc1ccc(NC(=O)C2CCCN(c3nccnc3Sc3ccc(C)cc3)C2)cc1` (centres undefined) registered an RP-LC retention time of 894 s. `COc1ccc(CSc2nccc3c2ccn3CC(=O)N2CCN(c3ccc(F)cc3)CC2)cc1`: the RP-LC retention time is 777 s.

As for `Cn1c(CN2CCN(C(=O)Cc3ccc(Cl)cc3)CC2)nc2cc(C(=O)N3CCCC3)ccc21`, the RP-LC retention time was found to be 646 s. With `Cc1ccc(NS(=O)(=O)c2ccc(-c3c(C)noc3C)cc2)cc1Cl` the figure was 1040 s; with `O=C(C1=NN(CCc2ccccc2)c2ccccc2S1(=O)=O)N1CCCC1`, 857 s; with `COc1cc2c(cc1CNC(=O)c1ccc3c(c1)CC(C)O3)OCCCO2` (centres undefined), 855 s. Consider `COc1ccc(-c2csc3c(=O)n(CC(=O)NCc4ccco4)cnc23)cc1`, for which the RP-LC retention time was determined as 764 s. Molecule `Fc1cccc(N2CC3(CCNCC3)C2c2ccccc2)c1` (centres undefined) showed an RP-LC retention time of 721 s.

`CCN(CC)CCNC(=O)C1c2ccccc2Oc2ccccc21` registered an RP-LC retention time of 655 s.

`Cc1ccc(-c2[nH]ncc2CN2CC(F)(F)C[C@H]2CN2CCOCC2)cc1C` came in with an RP-LC retention time of 654 s. The same measure for `CC(C)CCNC(=O)C1(C)Cn2nc(C(=O)NCCc3ccc(Cl)cc3)cc2C(=O)N1C` (centres undefined): 845 s; for `CN1C(=O)c2cccn2CC1C(=O)NCc1ccco1` (centres undefined): 613 s; for `CCn1nccc1C(=O)N1CCCN(C2=NS(=O)(=O)C(c3ccccc3)=C2C)CC1`: 714 s.

Take `Cc1ccc(C(=O)N2CCC(COc3ccc(C(=O)NC(C)C)cc3)CC2)s1`: the RP-LC retention time amounted to 888 s. Molecule `CCOc1ccc(NC(=O)CSc2ncc(S(=O)(=O)c3ccccc3)c(=O)[nH]2)cc1` registered an RP-LC retention time of 737 s. Molecule `Cc1ccc(NC(=O)CSc2ccc(N3CCCC(C(=O)NC4CC4)C3)nn2)cc1F` (centres undefined) returned an RP-LC retention time of 664 s.

With `Cn1nc(N2CCCC(NS(=O)(=O)Cc3ccccc3)C2)ccc1=O` (centres undefined), the RP-LC retention time amounted to 702 s. As for `CN1CCCN(C(=O)C2CN(S(=O)(=O)c3cccnc3)CC23CCCCC3)CC1` (centres undefined), the RP-LC retention time is 605 s.

`O=C(Cc1nnc(-c2cnccn2)o1)NCc1ccc(Cl)cc1` displayed an RP-LC retention time of 698 s. `CC1CCN(Cc2csc(N3CCN(C(=O)CCCc4ccccc4)CC3)n2)CC1` registered an RP-LC retention time of 715 s.

`COc1cc(NC(=O)Cn2c(=O)nc(N3CCC(C)CC3)c3ccccc32)cc(OC)c1`: the RP-LC retention time came out at 798 s. `Cc1ccc(-c2nc(-c3ccc4c(c3)nc(C)c(=O)n4C)no2)cc1C` registered an RP-LC retention time of 1180 s. With `COc1ccc(NC(=O)c2nc3nc(C)cc(C(F)F)n3n2)cc1Cl` the figure was 813 s; with `Cc1nc(-c2ccc(C(F)(F)F)cc2)ncc1C(=O)NCc1ccco1`, 1020 s. The same measure for `CC(/C=C1\SC(=S)N(CC(=O)O)C1=O)=C\c1ccccc1`: 1150 s; for `COc1ccc(-c2nnc(-c3cc(S(=O)(=O)N4CCCC4)ccc3Cl)o2)cc1`: 1040 s. As for `O=C(COc1cccc2ccc(N3CCOCC3)nc12)NCC1CCCO1` (centres undefined), the RP-LC retention time is 564 s. Regarding `O=C(NCCCN1CCCC1)c1cc2n(n1)CCCN(Cc1ccc(F)cc1)C2=O`, the RP-LC retention time worked out at 619 s. As to `CCN1CCCC1CNC(=O)c1nc(-c2oc3ccc(OC)cc3c2C)no1` (centres undefined), the RP-LC retention time is 682 s. On to `Cc1ccc(NS(=O)(=O)c2cc(-c3[nH]ncc3C(=O)N(C)C)oc2C)cc1C`, for which the RP-LC retention time stood at 729 s. With `CCOc1ccc(-c2nnc(SCC(=O)N3CCCC3)o2)cc1` the figure was 757 s; with `COc1ccccc1N1CCN(C(=O)C2CC(=O)N(c3ccc4oc(C)nc4c3)C2)CC1` (centres undefined), 693 s; with `COc1ccc(C)cc1NC(=O)Cn1nc(N2CCOCC2)c2ccccc2c1=O`, 856 s. With `CCn1c(C)c(C(=O)C(C)N(C(=O)c2ccc(C)cc2)C2CC2)c(C)c1C(=O)OC` (centres undefined) the figure was 1040 s; with `CN1C(=O)c2cc(S(=O)(=O)Nc3ccc(F)c(Cl)c3)ccc2Oc2cccnc21`, 962 s; with `Cc1ccc(S(=O)(=O)NCCn2c(C)cnc2C2CCC2)c(C)c1`, 675 s. In the case of `COc1ccccc1CNC(=O)C1CCN(C(=O)C2Sc3ccccc3NC2=O)CC1` (centres undefined), the RP-LC retention time is 736 s. As for `Cc1sc(NC(=O)CC(C)C)nc1-c1ccc2c(c1)NC(=O)C(C)O2` (centres undefined), the RP-LC retention time was determined as 865 s. Molecule `O=C(Cc1ccsc1)N1CCC(Nc2ncnc3c2CCC3)C1` (centres undefined) returned an RP-LC retention time of 588 s. `Cc1nc(-c2csc(S(=O)(=O)N3CCCC(C(=O)Nc4ccccc4)C3)c2)no1` (centres undefined) yielded an RP-LC retention time of 927 s. The same measure for `Cc1cnn(Cc2nc(-c3ccc(NC(=O)c4cccs4)cc3)oc2C)c1`: 879 s. The same measure for `COc1cccc(S(=O)(=O)N2CCC(c3noc(-c4ccccn4)n3)C2)c1` (centres undefined): 774 s; for `O=C(c1ccc(Cl)cc1)N1CCc2nc[nH]c2C1`: 568 s; for `O=C(Cn1nc2c(SC3CCCCC3)nccn2c1=O)NC1CCCCC1`: 987 s.

Regarding `O=C(c1cccc(Cl)c1)N1CCC2(CC1)N=C(c1cccc(Br)c1)NO2`, the RP-LC retention time amounted to 970 s.

The molecule `O=C(Nc1ccc2cn[nH]c2c1)C1c2ccccc2Oc2ccccc21` displayed an RP-LC retention time of 795 s. Molecule `O=C(NCC1CCN(Cc2ccccc2)CC1)C(=O)Nc1ccc(F)cc1F` returned an RP-LC retention time of 573 s. With `CCc1ccc(C(=O)N2CCCn3nc(-c4cccs4)cc3C2)cc1` the figure was 913 s; with `CN(C)c1nc2ncn3c(=O)n(CC(=O)NC4CCCC4)nc3c2s1`, 647 s. The same measure for `COc1ccc(OC)c(NC(=O)N2CCCn3nc(-c4cccs4)cc3C2)c1`: 867 s; for `CC1CCN(S(=O)(=O)c2ccc3nn(Cc4ccc(Cl)cc4)c(=O)n3c2)CC1`: 819 s. With `O=C(NCCSc1ncc(-c2ccccc2)[nH]1)NCc1cccs1` the figure was 596 s; with `CC1=NS(=O)(=O)N(C)C=C1C(=O)OCc1cccc(Cl)c1`, 968 s; with `COCCn1cc(CCNC(=O)Nc2ccc(Br)cc2F)c2cccnc21`, 834 s. In the case of `CC1=C(c2ccccc2)S(=O)(=O)N=C1N1CCCN(C(=O)c2ccc(C#N)cc2)CC1`, the RP-LC retention time was determined as 777 s.

Regarding `COc1ccc(-c2nc3cccnc3n2C2CCN(C(=O)c3ccc4c(c3)OCO4)C2)cc1` (centres undefined), the RP-LC retention time is 716 s. The same measure for `Cc1cccc(-n2c(=O)c3c(cc(C)n3C)n(CC(=O)Nc3ccc(F)c(Cl)c3)c2=O)c1`: 940 s; for `COC(=O)C1=CN(c2cccc(OC)c2)c2cc(F)ccc2S1(=O)=O`: 857 s; for `CS(=O)(=O)c1ccc2nc(NC(=O)c3csc(-n4cccc4)n3)sc2c1`: 849 s. Molecule `CCc1nnc([C@@H]2CC(F)(F)CN2C(=O)c2noc(C)c2COC)o1` came in with an RP-LC retention time of 752 s.

`COc1ccc(C)cc1NC(=O)c1nc(-c2cn(Cc3ccc(F)cc3)nn2)no1` registered an RP-LC retention time of 961 s. Turning to `COc1ccc(S(=O)(=O)N2CCN=C2SCc2cccnc2)cc1`, the RP-LC retention time is 594 s. The same measure for `O=S(=O)(CCOc1ccccc1)NCc1ccc2c(c1)OCO2`: 806 s; for `CCc1ccc(OCc2nc(CC(=O)Nc3nc(-c4ccc(C)cc4)cs3)cs2)cc1`: 1270 s; for `Cc1ccc(NC(=O)Cn2nc(N3CCOCC3)c3ccccc3c2=O)c(C)c1`: 809 s. On to `O=C(Nc1cccc(Br)c1)c1cccn1Cc1noc(C2CC2)n1`, for which the RP-LC retention time turned out to be 1040 s. As for `CCCc1ccc(S(=O)(=O)N2CCC3(CC2)C(=O)N(CC)c2ccccc23)cc1`, the RP-LC retention time was determined as 1160 s. The same measure for `Cc1nn(-c2ccccc2)c(C)c1S(=O)(=O)N1CCC(C(=O)NC2CCCCCC2)CC1`: 965 s; for `COc1ccc(-c2noc(-c3nn(-c4ccc(F)c(F)c4)ccc3=O)n2)cc1`: 914 s; for `Cc1ccc(NC(=O)C2CC(=O)N(c3ccc4c(c3)CCN4C(=O)C3CC3)C2)c(C)c1` (centres undefined): 805 s.

For the molecule `CCOC(=O)C1CCN(c2ncccc2-c2nnc(-c3ccc(C)cc3)o2)CC1`, the RP-LC retention time worked out at 1140 s. The same measure for `Oc1c(C(Nc2ccccc2)c2ccccn2)ccc2cccnc12` (centres undefined): 763 s; for `CCCNC(=O)C1CCN(Cc2cn(C)c3ccc(Cl)cc23)CC1`: 650 s.

The molecule `CC(C)c1ccc(NC(=O)C2CCN(C(=O)C3Sc4ccccc4NC3=O)CC2)cc1` (centres undefined) came in with an RP-LC retention time of 872 s. `Cc1ccccc1OCC(=O)NCc1c(C)noc1C`: the RP-LC retention time was 790 s. With `CCOc1ccc(-c2noc(Cc3nnc(-c4ccc(C)c(F)c4)o3)n2)cc1` the figure was 1140 s.

As to `CCSc1ccc(Cc2nnc(NC(=O)c3cccs3)o2)cc1`, the RP-LC retention time amounted to 807 s.

The record behind these values is the METLIN SMRT retention time set (Domingo-Almenara et al. 2019).
